Test results: patent US20020086427A1, “Inducible eukaryotic expression system that regulates protein translation” (priority 2000, published 2002)

Assays:
[1] = test system: hEpo expression in C2C12 mouse myoblast cell line; assay: hEpo expression (ELISA of supernatant) in C2C12 myoblasts transfected with stop-codon-mutated hEpo constructs, with or without aminoglycoside; assay type: cell-based; details: for induction of hEpo expression compared to cells not given aminoglycoside: 0.2 mg/ml aminoglycoside, stop-codon-mutated hEpo constructs in C2C12 cells; for read-through of the stop codon mutation: in vitro, C2C12 cells
Protocol: In this example, three different mutated human Epo genes (prepared as described in Example 1) were individually transfected into myoblasts and expression of the genes was subsequently regulated by application of two different aminoglycosides.
The C2C12 mouse myoblast cell line (ATCC) was maintained in DMEM, 10% fetal bovine serum, 1% penicillin/streptomycin and 1% glutamine.
C2C 12 cells were plated at […] on the afternoon before transfection. 15 μg of wildtype or mutated hEpo plasmid DNA was mixed with 50 μl of Lipofectamine (Gibco) and 2 mls of Opti-MEM (Gibco) and incubated at room temperature for 15 minutes for DNA/liposome complexes to form. Cells were washed twice with 5 mils of Opti-MEM. Two ml of Opti-MEM and the DNA/liposome complexes were added and incubated at 37° C. in 5% CO2 for 5 hours. Eight ml of growth medium (DMEM+10% FBS) was added to cells and incubated overnight at 37° C.
The following day, 10 mls of fresh growth medium was added to the cells with or without 0.2 mg/ml of one of two aminoglycosides: G418 (Sigma) or gentamycin sulfate (Sigma). Cells were allowed to incubate for an additional 72 hours and a sample of the supernatant was taken for transgene analysis at 24, 48, and 72 hours.
Supernatants from transfected cells were analyzed for hEpo expression using the Quantikine IV human Epo ELISA kit (R&D Systems). Samples were diluted within the linear range of the assay using specimen diluent and assayed using a microplate reader (Molecular Devices) at 450 nm.
In this example, a series of additional mutated human Epo constructs were prepared, into which stop codon mutations were introduced at different codon positions from those described in Example 1. These constructs were introduced into C2C12 mouse myoblasts as described in Example 2 and the inducibility of hEpo activity from these constructs using either gentamycin sulfate (GS) or G418 was examined as described in Example 2. The constructs were prepared by standard PCR mutagenesis, as described in Example 1, and introduced a stop codon mutation into the human Epo sequence at either nucleotide position 307 (pVR1012hEpo.307), position 434 (pVR1012hEpo.434), position 208 (pVR1012hEpo.208), position 214 (pVR1012hEpo.214) or position 199 (pVR1012hEpo. 199).
Data for constructs with mutations at either nucleotide position 437 (pVR1012hEpo.437), position 454 (pVR1012hEpo.454) or position 526 (pVR1012hEpo.526), prepared as described in Example 1, are included for comparison purposes.

[2] = test system: naturally-occurring premature stop codon mutations in the dystrophin gene; details: mice; cited from earlier work

Compound	induction of hEpo expression compared to cells not given aminoglycoside [1]	read-through of the stop codon mutation [1]	effective dosage [2]
CN[C@@H]1[C@@H](O)[C@@H](O[C@@H]2[C@@H](O)[C@H](O[C@H]3O[C@H]([C@@H](C)O)[C@@H](O)[C@H](O)[C@H]3N)[C@@H](N)C[C@H]2N)OC[C@]1(C)O [G418]	20-50 fold	10%	
gentamycin sulfate	6-8 fold	3%	17 mg/kg
